Measured values as given in patent US6482809B1, “Use of tiludronic acid and derivatives thereof in poultry for the preparation of a medicinal product for preventing and treating osteoporosis” (Ceva Sante Animale, priority 2000, dated 2002).

Columns and labels:
[1] = tested on: trabecular bone of the tarsometatarsal bone of hens; assay: Histomorphometric examination of trabecular bone volume of the tarsometatarsal bone after a single subcutaneous administration; type: in vivo, hens of ISA Brown strain
Description: (§1) A total number of 216 hens of ISA Brown strain between 15 and 17 weeks old was divided into 3 groups for the purpose of evaluating the effects on bone of a single subcutaneous administration of tiludronic acid, in the form of its sodium salt (disodium tiludronate).
(§2) Three doses were compared: 0, 1 and 10 mg/kg (corresponding amount of tiludronic acid/kg). The tiludronic acid was administered in the form of injectable aqueous solutions such that the volume injected per bird was 1 ml per kilo of live weight. The tiludronic acid solutions were thus concentrated to 0.1% and 1% for the doses of 1 and 10 mg/kg, respectively. The control group received a placebo corresponding to water for an injectable preparation. The injections were performed subcutaneously in the region above the superficial pectoral muscle.
(§3) The hens were housed in individual cages in the same building at controlled temperature and hygrometry. Each animal was identified by a number carried on a ring attached to a wing. They received the same standard feed for laying hens, freely throughout the duration of the study. The drinking water was also distributed freely.
(§4) The average age of onset of laying for the hens in this strain is 20 weeks. Consequently, the average delay between the treatment and the age of onset of laying had to be from 3 to 5 weeks. The duration of the study was 40 weeks. At the end of the study, the hens were 55 weeks old.
(§5) Half of the total number was sacrificed on laying the first egg, in order to carry out a histomorphometric examination performed on a decalcified section of the proximal region of one of the tarsometatarsal bones in order to measure the trabecular and medullary bone volumes.
(§6) The other half of the total number of hens was monitored up to 55 weeks of age (i.e. after about 34 weeks of laying), at which point all the remaining animals were sacrificed. The same bone examination was carried out on these animals as on the hens sacrificed after laying the first egg.
(§7) The bone parameters were compared by means of a one-factor variance analysis (dose factor).
(§8) The histomorphometric examination carried out allows the changes in the structure of the bone to be assessed.

[2] = tested on: medullary bone of the tarsometatarsal bone of hens; assay: Histomorphometric examination of medullary bone volume of the tarsometatarsal bone after a single subcutaneous administration; type: in vivo, hens of ISA Brown strain
Description: as §1, §2, §3, §4, §5, §6, §7, §8

[3] = tested on: osteoporosis in menopausal women; conditions: 50 or 200 mg per person orally; cited from earlier work
[4] = tested on: trabecular bone of laying hens; conditions: cited from earlier work
[5] = tested on: medullary bone of laying hens; conditions: 18 weeks after the onset of laying; treated before the onset of laying; cited from earlier work
[6] = tested on: egg production of laying hens; conditions: administered during laying; decrease or even stoppage of laying as a function of the dose; cited from earlier work
[7] = at 55 weeks old, 1 mg/kg single subcutaneous injection
[8] = at 55 weeks old, 10 mg/kg single subcutaneous injection

Compound | Trabecular bone loss during laying ([1]; 1 mg/kg, onset of laying to 55 weeks old) | Trabecular volume versus controls ([1]; at 55 weeks of age, 10 mg/kg) | Trabecular bone volume of the tarsometatarsal bone [1, 7] [%] | Trabecular bone volume of the tarsometatarsal bone [1, 8] [%] | Variation of trabecular bone volume between the two periods ([1]; onset of laying to 55 weeks old, 1 mg/kg) | Variation of trabecular bone volume between the two periods ([1]; onset of laying to 55 weeks old, 10 mg/kg) [%] | Trabecular bone volume of the tarsometatarsal bone ([1]; onset of laying, 1 mg/kg single subcutaneous injection at 15-17 weeks old) [%] | Gain in trabecular bone volume compared with the controls ([1]; onset of laying, 10 mg/kg) [%] | Trabecular bone volume of the tarsometatarsal bone ([1]; onset of laying, 10 mg/kg single subcutaneous injection at 15-17 weeks old) [%] | Average medullary bone volumes, comparison between the groups ([2]; at 55 weeks old, 0, 1 and 10 mg/kg) | Volume of medullary bone of the tarsometatarsal bone [2, 7] [%] | Medullary bone volume higher than that in the control animals ([2]; at 55 weeks old, 10 mg/kg) [%] | Volume of medullary bone of the tarsometatarsal bone [2, 8] [%] | Medullary bone volumes, comparison between the groups ([2]; onset of laying, 0, 1 and 10 mg/kg) | Efficacy in osteoporosis in menopausal women [3] | Trabecular bone volume higher than that of the control hens ([4]; after laying for 18 weeks, 0.01 mg/kg s.c., 6 administrations (total 0.06 mg/kg) from 14 weeks old) | Trabecular bone volume higher on average in the treated hens than in the control hens ([4]; onset of laying, 0.01 mg/kg subcutaneously, repeated before laying) [%] | Medullary bone volume less than that of the control animals [5] | Effect on egg production [6]
tiludronic acid | no trabecular bone loss took place during laying | significantly higher than that of the controls | 11.3 ± 2.5 | 12.0 ± 2.0 | +4% | −12 | 10.9 ± 2.9 | 12 | 13.7 ± 3.3 | not significantly different between the groups | 2.75 ± 2.72 | 20 | 3.53 ± 3.04 | does not reveal any significant difference between the groups | not demonstrated their efficacy | – | – | – | –
NCCCC(O)(P(=O)(O)O)P(=O)(O)O [alendronic acid] | – | – | – | – | – | – | – | – | – | – | – | – | – | – | – | about 35% | ≤ 30 | about 20% | harmful effect on egg production
